The values below come from patent publication US20240101542A1, “ERAP INHIBITORS” (UNIVERSITE DE LILLE, priority 2020, published 2024).

Structures are written as SMILES. A value given as a limit tells only on which side of the number the result lay.

The IC50 is the midpoint of a concentration-inhibition curve.

Sequence of ERAP1 (Q9NZ08 whole entry): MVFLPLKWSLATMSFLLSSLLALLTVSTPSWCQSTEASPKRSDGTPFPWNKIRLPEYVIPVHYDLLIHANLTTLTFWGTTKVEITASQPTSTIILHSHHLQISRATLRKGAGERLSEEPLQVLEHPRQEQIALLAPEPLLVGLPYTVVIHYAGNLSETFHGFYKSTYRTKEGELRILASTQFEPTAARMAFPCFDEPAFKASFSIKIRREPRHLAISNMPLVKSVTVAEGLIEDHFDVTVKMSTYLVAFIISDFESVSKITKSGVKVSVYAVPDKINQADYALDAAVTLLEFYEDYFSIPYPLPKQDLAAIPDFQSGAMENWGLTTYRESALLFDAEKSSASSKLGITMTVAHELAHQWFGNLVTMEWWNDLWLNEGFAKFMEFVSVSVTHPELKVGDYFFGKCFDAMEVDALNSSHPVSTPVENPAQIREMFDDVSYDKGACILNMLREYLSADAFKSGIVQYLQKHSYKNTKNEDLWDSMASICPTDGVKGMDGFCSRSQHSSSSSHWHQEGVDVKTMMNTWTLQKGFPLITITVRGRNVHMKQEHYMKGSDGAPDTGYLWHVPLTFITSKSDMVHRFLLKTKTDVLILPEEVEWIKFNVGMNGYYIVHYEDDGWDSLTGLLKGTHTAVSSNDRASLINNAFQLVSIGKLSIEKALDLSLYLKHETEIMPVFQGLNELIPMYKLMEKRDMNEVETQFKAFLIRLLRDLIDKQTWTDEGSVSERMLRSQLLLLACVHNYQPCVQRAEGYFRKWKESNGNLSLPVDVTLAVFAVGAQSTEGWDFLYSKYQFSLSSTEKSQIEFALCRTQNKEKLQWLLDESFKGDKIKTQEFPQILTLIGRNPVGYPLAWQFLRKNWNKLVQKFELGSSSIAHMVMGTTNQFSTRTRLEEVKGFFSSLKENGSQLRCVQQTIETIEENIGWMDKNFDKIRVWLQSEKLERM

The first assay addresses ERAP1 (Homo sapiens (Human), UniProt Q9NZ08). In words: In vitro ERAP activity assay, ERAP1 with L-AMC substrate. Type of assay: biochemical. To be noted: L-AMC as substrate; read-out: IC50 on ERAP1 or ERAAP using L-AMC as substrate. On the procedure:
(§1) The enzymatic activity of ERAP1 or 2 was assayed using L-AMC (L-Leucine-7-amido-4-methylcoumarin hydrochloride) or R-AMC (L-Arginine-7-amido-4-methylcoumarin hydrochloride) respectively. Hepes at 50 mM with 100 mM NaCl at pH 7 was used as buffer. Briefly, 60 nL of test compounds were added in 384-wells plates (dark, non-binding surface) by acoustic dispensing with nanoacoustic dispenser Echo (Labcyte) and pre-incubated 30 minutes at ambient temperature with 10 μL of ERAP 0.8 μg/mL or 1 μg/mL or vehicle. The reaction was then started with the addition of 10 μL of substrate at 10 μM. The final concentration of ERAP, substrate and DMSO was 0.5 μg/mL, 5 μM and 0.4% respectively. For the kinetic readout a Victor 3V (Perkin-Elmer) was used with excitation at 380 nm and emission at 450 nm. The fluorescence was measured each 3 minutes during one hour.
(§2) The Z and Z′ factors were calculated according to J.-H. Zhang, T. D. Y. Chung, K. R. Oldenburg, A Simple Statistical Parameter for Use in Evaluation and Validation of High Throughput Screening Assays, J. Biomol. Screen., 4 (1999) 67-73. Data analysis was performed using Xlfit® v 5.0 or GraphPad Prism® v 4.0.
(§3) Percentages of inhibition at different concentrations were obtained as described above and IC50s were carried out as 8-point dose response curves and reported as the average of at least three independent measurements. […] Data analysis was performed using Xlfit® v 5.0 or GraphPad Prism® v 4.0. Nonlinear curve fitting and statistical analysis was done using built-in functions.
Take `O=C(NO)[C@H](Cc1ccc(O)c(F)c1)n1cc(CNS(=O)(=O)c2ccc(-c3ccccc3)s2)nn1` [Compound 45]: the IC50 was above 5 µM.

As for `COc1cccc(C[C@@H](C(=O)NO)n2cc(CNS(=O)(=O)c3ccc(-c4ccccn4)s3)nn2)c1` [Compound 49], the 50% inhibitory concentration (IC50) was above 5 µM.

Consider `COc1ccc(C[C@@H](C(=O)NO)n2cc(CNS(=O)(=O)c3ccc(-c4ccccn4)s3)nn2)cc1F` [Compound 52], for which the IC50 was above 5 µM.

With `COc1ccc(C[C@@H](C(=O)NO)n2cc(CNS(=O)(=O)c3ccc(-c4ccccn4)s3)nn2)cc1Cl` [Compound 53], the IC50 is below 5 µM.

As to `C#Cc1ccc(C[C@@H](C(=O)NO)n2cc(CNS(=O)(=O)c3ccc(-c4ccccc4)s3)nn2)cc1` [Compound 54], the IC50 was below 5 µM.

As for `N=C(NO)c1ccc(C[C@@H](C(=O)NO)n2cc(CNS(=O)(=O)c3ccc(-c4ccccc4)s3)nn2)cc1` [Compound 55], the IC50 is below 5 µM.

Take `COc1ccc(C[C@@H](C(=O)NO)n2cc(CNS(=O)(=O)c3cnc(-c4ccccc4)s3)nn2)cc1` [Compound 56]: the IC50 is below 5 µM.

For `COc1ccc(C[C@@H](C(=O)NO)n2cc(CN(C3CC3)S(=O)(=O)c3ccc(-c4ccccn4)s3)nn2)cc1` [Compound 57], the IC50 was above 5 µM.

With `COc1ccc(C[C@@H](C(=O)NO)n2cc(C3CCCCN3S(=O)(=O)c3ccc(-c4ccccc4)s3)nn2)cc1` (stereo partly shown) [Compound 58], the IC50 is below 5 µM.

Take `COc1ccc(C[C@@H](C(=O)NO)n2cc([C@@H]3CCCN3S(=O)(=O)c3ccc(-c4ccccc4)s3)nn2)cc1` [Compound 59]: the IC50 is below 5 µM.

For `N#Cc1ccc(C[C@@H](C(=O)NO)n2cc(CNS(=O)(=O)c3ccc(-c4ccccc4)s3)nn2)cc1` [Compound 60], the IC50 was below 5 µM.

A further assay deals with ERAP2 (Homo sapiens (Human), UniProt Q6P179). Kind of assay: In vitro ERAP activity assay, ERAP2 with R-AMC substrate. In kind it is biochemical. Further details: IC50 on ERAP2 using R-AMC as substrate: scale not given here. Conditions: R-AMC as substrate. The procedure: as §1, §2, §3
Sequence of ERAP2 (Q6P179 whole entry): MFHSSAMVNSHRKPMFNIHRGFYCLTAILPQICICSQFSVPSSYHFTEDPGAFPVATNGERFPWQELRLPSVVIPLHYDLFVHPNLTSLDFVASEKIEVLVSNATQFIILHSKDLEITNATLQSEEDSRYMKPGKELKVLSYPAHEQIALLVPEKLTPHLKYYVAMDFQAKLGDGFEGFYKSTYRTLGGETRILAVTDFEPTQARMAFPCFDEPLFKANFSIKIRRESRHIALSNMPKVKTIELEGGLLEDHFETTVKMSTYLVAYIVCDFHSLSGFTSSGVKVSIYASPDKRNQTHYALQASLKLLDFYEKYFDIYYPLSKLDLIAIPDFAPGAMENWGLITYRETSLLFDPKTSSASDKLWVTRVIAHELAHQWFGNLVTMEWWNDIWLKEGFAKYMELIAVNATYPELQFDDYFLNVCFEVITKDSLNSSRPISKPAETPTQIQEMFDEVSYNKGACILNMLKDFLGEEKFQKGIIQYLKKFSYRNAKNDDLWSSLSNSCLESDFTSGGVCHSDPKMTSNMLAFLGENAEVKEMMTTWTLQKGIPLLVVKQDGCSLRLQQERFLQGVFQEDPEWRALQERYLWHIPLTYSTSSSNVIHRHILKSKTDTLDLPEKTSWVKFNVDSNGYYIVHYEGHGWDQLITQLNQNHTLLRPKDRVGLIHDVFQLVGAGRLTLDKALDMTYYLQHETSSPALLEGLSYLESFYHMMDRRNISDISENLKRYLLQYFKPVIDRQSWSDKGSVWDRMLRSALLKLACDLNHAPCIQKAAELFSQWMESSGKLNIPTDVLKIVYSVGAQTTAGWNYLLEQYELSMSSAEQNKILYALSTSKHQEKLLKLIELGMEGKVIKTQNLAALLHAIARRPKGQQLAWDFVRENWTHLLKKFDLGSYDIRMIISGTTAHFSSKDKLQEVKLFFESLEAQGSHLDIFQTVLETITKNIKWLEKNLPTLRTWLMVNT
Turning to `COc1ccc(C[C@@H](C(=O)NO)n2cc(CN(C3CC3)S(=O)(=O)c3ccc(-c4ccccn4)s3)nn2)cc1` [Compound 57], the “IC50 on ERAP2 using R-AMC as substrate” value is listed as “+ +”.

Still in this assay, the particulars now being: R-AMC as substrate; read-out: IC50 on ERAP2 using R-AMC as substrate.
For the compound `O=C(NO)[C@H](Cc1ccc(O)c(F)c1)n1cc(CNS(=O)(=O)c2ccc(-c3ccccc3)s2)nn1` [Compound 45], the IC50 was below 0.5 µM.

As for `COc1cccc(C[C@@H](C(=O)NO)n2cc(CNS(=O)(=O)c3ccc(-c4ccccn4)s3)nn2)c1` [Compound 49], the IC50 is below 0.5 µM.

With `COc1ccc(C[C@@H](C(=O)NO)n2cc(CNS(=O)(=O)c3ccc(-c4ccccn4)s3)nn2)cc1F` [Compound 52], the 50% inhibitory concentration (IC50) is below 0.5 µM.

On to `COc1ccc(C[C@@H](C(=O)NO)n2cc(CNS(=O)(=O)c3ccc(-c4ccccn4)s3)nn2)cc1Cl` [Compound 53], for which the IC50 is below 0.5 µM.

In the case of `C#Cc1ccc(C[C@@H](C(=O)NO)n2cc(CNS(=O)(=O)c3ccc(-c4ccccc4)s3)nn2)cc1` [Compound 54], the IC50 was below 0.5 µM.

Regarding `N=C(NO)c1ccc(C[C@@H](C(=O)NO)n2cc(CNS(=O)(=O)c3ccc(-c4ccccc4)s3)nn2)cc1` [Compound 55], the IC50 was below 0.5 µM.

As to `COc1ccc(C[C@@H](C(=O)NO)n2cc(CNS(=O)(=O)c3cnc(-c4ccccc4)s3)nn2)cc1` [Compound 56], the IC50 was below 0.5 µM.

Take `COc1ccc(C[C@@H](C(=O)NO)n2cc(C3CCCCN3S(=O)(=O)c3ccc(-c4ccccc4)s3)nn2)cc1` (stereo partly shown) [Compound 58]: the IC50 is above 5 µM.

For `COc1ccc(C[C@@H](C(=O)NO)n2cc([C@@H]3CCCN3S(=O)(=O)c3ccc(-c4ccccc4)s3)nn2)cc1` [Compound 59], the IC50 was above 5 µM.

For the compound `N#Cc1ccc(C[C@@H](C(=O)NO)n2cc(CNS(=O)(=O)c3ccc(-c4ccccc4)s3)nn2)cc1` [Compound 60], the IC50 was below 0.5 µM.
